{
  "source": "patent US20220087987A1",
  "about": "“A METHOD FOR TREATING SWI/SNF COMPLEX-DEFICIENT CANCERS COMPRISING GLUTATHIONE (GSH) METABOLIC PATHWAY INHIBITOR” (National Cancer Center, priority 2018, published 2022)",
  "key": {"p53, p21": {"system": "p53, p21", "assay": "Immunoblot for p53 and p21", "format": "cell-based, human", "details": "ARID1A-WT and ARID1A-KO HCT116; 50 μM PRIMA-1, 50 μM APR-246, 10 μM Nutlin3a, 16 hrs", "description": "The soluble fractions of whole-cell lysates were mixed with SDS sample buffer. […] The soluble fractions were mixed with SDS sample buffer. Tumor samples derived from xenografts were weighed and washed with PBS. […] The homogenized tumor samples were diluted in an additional 450 μl of NETN420 buffer, incubated for 30 min on ice, and centrifuged at 4° C. for 10 min at 15,000 rpm. The soluble fractions of whole-cell lysates were mixed with SDS sample buffer. Proteins were separated by SDS-PAGE, transferred to PVDF membranes, and immunoblotted with the indicated antibodies. β-actin was used as a loading control. Membranes were blocked overnight at 4° C. or for 1 hr at 25° C. with PVDF Blocking Reagent for Can Get Signal (TOYOBO) and then probed with Can Get Signal Solution 1 (TOYOBO) containing primary antibodies. After washing with TBS containing 0.1% Tween 20, the membranes were incubated with TBS containing 0.1% Tween 20, 1% BSA, and horseradish peroxidase-conjugated anti-mouse or anti-rabbit secondary antibodies, and visualized using Western Lightning ECL Pro (Perkin Elmer). Chemiluminescence signals were measured using LAS-3000 Imaging System (Fujifilm). Signal intensities were measured using Multi Gauge software."}, "[1]": {"system": "ARID1A-proficient and ARID1A-deficient cancer cell lines", "assay": "Cell viability and colony formation in cancer cell line panel", "format": "cell-based, human"}, "ROS": {"system": "ROS", "assay": "Detection of ROS in cells (ROS-Glo)", "format": "cell-based, human", "details": "ARID1A-deficient versus ARID1A-proficient ovarian and other cancer cells", "description": "GSH, ROS and apoptosis were detected using the GSH/GSSG-Glo Assay (Promega) and/or the GSH-Glo Assay (Promega), the ROS-Glo Assay (Promega), and the Caspase-Glo 3/7 Assay, respectively. To measure levels of GSH, ROS and apoptosis after drug treatment, cells were trypsinized, counted, reseeded at the specified density in 96-well plates and exposed to the indicated concentrations of drugs. After 16-48 hrs, luminescence was measured using an Envision Multi-label plate reader (PerkinElmer). To measure levels of GSH and ROS after siRNA-mediated knockdown, cell lines were transfected with siRNAs (25 nM) using Lipofectamine RNAiMAX. After 48 hrs, cells were trypsinized and transfected repeatedly with siRNAs (25 nM) using Lipofectamine RNAiMAX. Cells were trypsinized after a further 48 hrs, counted, and reseeded at the specified density in 96-well plates. After 72-120 hrs, luminescence was measured using an Envision Multi-label plate reader (PerkinElmer). Cell viability was also measured using the CellTiter-Glo Luminescent Cell Viability Assay (Promega). Caspase-3/7, GSH, and ROS levels were normalized against cell viability. The GSH/GSSG ratio was calculated as the GSH-GSSG signal divided by the GSSG/2 signal. Relative signal ratios in treated samples were normalized against untreated samples."}, "GSH": {"system": "GSH", "assay": "Detection of GSH in cells (GSH/GSSG-Glo, GSH-Glo)", "format": "cell-based, human", "details": "ARID1A-deficient versus ARID1A-proficient ovarian and other cancer cells"}, "[2]": {"system": "ARID1A-deficient OVISE OCCC xenografts", "assay": "Mouse xenograft model, OVISE", "format": "in vivo, mice", "details": "PRIMA-1 25 mg/kg", "description": "All mouse experiments were approved by the National Cancer Center (NCC) animal Ethical Committee. Cells were counted and re-suspended in a 1:1 mixture of 100 μl culture medium and 100 μl Matrigel (BD Biosciences) on ice. Thereafter, cells (RMG-I: 2×10^6 cells/mouse; TOV21G: 2×10^5 cells/mouse for ARP-246 treatment and 1×10^6 cells/mouse for BSO treatment; OVISE: 2×10^6 cells/mouse; TOV21G-shNT: 2×10^5 cells/mouse; and TOV21G-shGCLC: 2×10^5 cells/mouse) were injected subcutaneously into the flank of 6-week-old female BALB/c-nu/nu mice (CLEA and Charles River). In the subcutaneous model, once the tumors were palpable (about 3-14 days after implantation), mice were randomly divided into two groups. In the drug treatment group, mice were injected intraperitoneally with either PBS or compounds [APR-246 (50 mg/kg), PRIMA-1 (25 mg/kg), or BSO (750 mg/kg)] once daily for 12-14 days. In the doxycycline (Dox) treatment study, TOV21G-shNT cells and TOV21G-shGCLC cells were injected into the flanks of 6-week-old female BALB/c-nu/nu mice. […] Tumor growth was measured every several days using calipers. The volume of implanted tumors was calculated using the formula V=L×W2/2, where V is volume (mm^3), L is the largest diameter (mm), and W is the smallest diameter (mm). […]"}, "ARID1A-KO HCT116 cells": {"system": "ARID1A-KO HCT116 cells", "assay": "Drug library screen, cell viability (CellTiter-Glo)", "format": "cell-based, human", "parameters": "key to Cell viability, KO: % viability relative to DMSO solvent-treated cells", "details": "HCT116 ARID1A-KO, 10 μM for 5 days, relative to cells treated with solvent (DMSO); for viability at 10 µM: Homo sapiens, HCT-116, 120 h, read-out: Cell viability, KO", "in_short": "(§1)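 ARID1A-WT and ARID1A-KO HCT116 cells screened against the library; viability read after 5 days by CellTiter-Glo luminescence, expressed relative to DMSO-treated cells. Hits: KO viability below 40% with WT viability above 80%.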"}, "[3]": {"system": "ARID1A-WT and ARID1A-KO HCT116 cells", "assay": "Cell viability and colony formation assays", "format": "cell-based, human", "details": "cell viability 5 days, colony formation 10 days", "description": "Cell viability was examined by measuring the cellular ATP level using the CellTiter-Glo Luminescent Cell Viability Assay (Promega). To measure cell viability after siRNA-mediated knockdown, cell lines were transfected with siRNAs (25 nM) using Lipofectamine RNAiMAX. After 48 hrs, cells were trypsinized and repeatedly transfected with siRNAs (25 nM) using Lipofectamine RNAiMAX. Cells were trypsinized after a further 48 hrs, counted, and reseeded at the specified density in 96-well plates. To measure cell viability after drug treatment, cells were trypsinized, counted, reseeded at the specified density in 96-well plates, and exposed to the indicated concentrations of drugs. Cell viability was measured using the CellTiter-Glo Luminescent Cell Viability Assay. Luminescence was measured using an Envision Multi-label plate reader (PerkinElmer).\nThe effect of drug treatment on cancer cell survival was evaluated in a colony formation assay. Cells were trypsinized, counted, reseeded at the specified density in 12-well plates, exposed to the indicated concentrations of drugs for 10-14 days, and fixed for 10 min in 50% (v/v) methanol containing 0.01% (w/v) crystal violet. Images were taken on LAS-3000 Imaging System (Fujifilm) and colonies were counted using Multi Gauge software."}, "ARID1A-WT HCT116 cells": {"system": "ARID1A-WT HCT116 cells", "assay": "Drug library screen, cell viability (CellTiter-Glo)", "format": "cell-based, human", "parameters": "key to Cell viability, WT: % viability relative to DMSO solvent-treated cells", "details": "HCT116 ARID1A-WT; 10 μM for 5 days; relative to cells treated with solvent (DMSO)", "in_short": "as §1"}, "[4]": {"assay": "Drug library screen, cell viability (CellTiter-Glo)", "format": "cell-based, human", "parameters": "key to Cell viability, WT: % viability relative to DMSO solvent-treated cells", "details": "human; HCT116 ARID1A-WT; 10 μM for 5 days; relative to cells treated with solvent (DMSO); read-out: Cell viability, WT", "in_short": "as §1"}},
  "data": [
    {"smiles": "COc1ccc(C2=N[C@@H](c3ccc(Cl)cc3)[C@@H](c3ccc(Cl)cc3)N2C(=O)N2CCNC(=O)C2)c(OC(C)C)c1", "note": "[Nutlin3a]", "values": [
      {"measurement": "expression of p53 and p21", "setting": "p53, p21", "result": "increased the p53 level and upregulated the p53 target p21"}
    ]},
    {"smiles": "O=C(O)c1cc(/N=N/c2ccc(S(=O)(=O)Nc3ccccn3)cc2)ccc1O", "note": "[sulfasalazine]", "values": [
      {"measurement": "sensitivity of ARID1A-deficient TOV21G versus ARID1A-proficient RMG-I ovarian cancer cells", "setting": "[1]; cell viability after 3 days", "result": "more sensitive than ARID1A-proficient RMG-I ovarian cancer cells"}
    ]},
    {"smiles": "CC(=O)OC[C@H]1O[C@@H]([S-])[C@H](OC(C)=O)[C@@H](OC(C)=O)[C@@H]1OC(C)=O.CCP(CC)CC.[Au+]", "note": "[auranofin]", "values": [
      {"measurement": "sensitivity of ARID1A-deficient versus ARID1A-proficient cancer cells", "setting": "[1]; four ARID1A-proficient and six ARID1A-deficient cell lines, cell viability, colony formation", "result": "more sensitive to the TrxR inhibitor auranofin than ARID1A-proficient cells"},
      {"measurement": "ROS level in cancer cell lines", "setting": "ROS", "result": "more evident in ARID1A-deficient cancer cells"},
      {"measurement": "GSH level in cancer cell lines", "setting": "GSH", "result": "more evident in ARID1A-deficient cancer cells"}
    ]},
    {"smiles": "O=C1C2CCN(CC2)C1(CO)CO", "note": "[PRIMA-1]", "values": [
      {"measurement": "body weight of mice", "setting": "[2]", "result": "without causing significant weight loss"},
      {"measurement": "growth of xenografts (tumor volume)", "setting": "[2]", "result": "significantly suppressed the growth"},
      {"measurement": "expression of p53 and p21", "setting": "p53, p21", "result": "did not markedly affect expression of p53 or p21"},
      {"measurement": "Cell viability, KO", "setting": "ARID1A-KO HCT116 cells", "result": 12.95},
      {"measurement": "growth / survival of ARID1A-KO versus ARID1A-WT cells", "setting": "[3]", "result": "reproducibly suppressed the growth of ARID1A-KO cells but not ARID1A-WT cells"},
      {"measurement": "Cell viability, WT", "setting": "ARID1A-WT HCT116 cells", "result": 84.25}
    ]},
    {"smiles": "CC(C)(C)NC(=O)[C@H]1CC[C@H]2[C@@H]3CC[C@H]4NC(=O)C=C[C@]4(C)[C@H]3CC[C@]12C", "note": "[Finasteride]", "values": [
      {"measurement": "viability at 10 µM", "setting": "ARID1A-KO HCT116 cells", "result": 108, "unit": "%"},
      {"measurement": "viability at 5 days, 10 μM", "setting": "[4]", "result": 99.6, "unit": "%"}
    ]},
    {"smiles": "CC(C)[C@@H]1NC(=O)[C@H](C)OC(=O)[C@@H](C(C)C)NC(=O)[C@@H](C(C)C)OC(=O)[C@H](C(C)C)NC(=O)[C@H](C)OC(=O)[C@@H](C(C)C)NC(=O)[C@@H](C(C)C)OC(=O)[C@H](C(C)C)NC(=O)[C@H](C)OC(=O)[C@@H](C(C)C)NC(=O)[C@@H](C(C)C)OC1=O", "note": "[Valinomycin]", "values": [
      {"measurement": "viability at 10 µM", "setting": "ARID1A-KO HCT116 cells", "result": 4.17, "unit": "%"},
      {"measurement": "viability", "setting": "[4]", "result": 3.65, "unit": "%"}
    ]}
  ]
}
